Assay results from the NIST ThermoML archive (doi:10.1016/j.jct.2005.06.017).

Assay: mn = molality of the nth substance listed, in mol/kg
Settings: 350 kPa, Liquid, Extra sensitive DSC

NCC(=O)O [2-aminoacetic acid] + O
apparent molar heat capacity [J/K/mol]
Settings | m1 = 0.015 | m1 = 0.03 | m1 = 0.0503 | m1 = 0.0804 | m1 = 0.125 | m1 = 0.2493 | m1 = 0.5056
278.15 K | 8 | – | – | – | – | – | 4.4
283.15 K | 25 | 1 | – | 12.3 | 10.3 | 12.4 | 18.7
288.15 K | 38 | 14 | 11 | 25.5 | 23.6 | 25.3 | 30.5
293.15 K | 50 | 25 | 24 | 36.5 | 34.1 | 35.4 | 40.4
298.15 K | 59 | 33 | 34.8 | 45.4 | 42.9 | 44 | 48.3
303.15 K | 67 | 41 | 43.7 | 52.8 | 50.1 | 51.1 | 55.2
308.15 K | 73 | 48 | 51 | 59.1 | 55.8 | 57 | 60.9
313.15 K | 78 | 54 | 57.3 | 64.5 | 61.3 | 62.4 | 66
318.15 K | 83 | 59 | 62.2 | 68.8 | 65.7 | 66.8 | 70.2
323.15 K | 86 | 63 | 66.8 | 72.7 | 69.3 | 70.6 | 73.9
328.15 K | 90 | 67 | 70.8 | 76 | 72.6 | 73.8 | 77.1
333.15 K | 92 | 70 | 74.5 | 79 | 75.4 | 76.7 | 80
338.15 K | 95 | 73 | 78 | 81.6 | 77.9 | 79.2 | 82.5
343.15 K | 97 | 75 | 80.6 | 83.6 | 80 | 81.3 | 84.6
348.15 K | 99 | 77 | 83.1 | 85.6 | 81.8 | 83.1 | 86.4
353.15 K | 101 | 79 | 85.3 | 87.3 | 83.4 | 84.8 | 88.1
358.15 K | 102 | 81 | 87.1 | 88.9 | 84.8 | 86.2 | 89.5
363.15 K | 103 | 82 | 88.9 | 90.2 | 86 | 87.3 | 90.7
368.15 K | 104 | 83 | 90.2 | 91 | 86.9 | 88.3 | 91.6
373.15 K | 104 | 83 | 91.1 | 91.7 | 87.5 | 89 | 92.4
378.15 K | 104 | 83 | 92.1 | 92.3 | 87.9 | 89.4 | 92.9
383.15 K | 103.9 | 84 | 93.3 | 92.9 | 88.2 | 89.9 | 93.3
388.15 K | 103.5 | 84 | 94.5 | 93.1 | 88.2 | 90 | 93.6
393.15 K | 101.4 | 84 | 95.6 | 92.9 | 87.7 | 89.7 | 93.6
